Read-outs that look alike come from different tables or passages of the source. Each block holds one molecule with its values, some of them ahead of it.
Key:
in vitro [1] = test: in vitro
Description: (§1) The reaction mixture, minus cofactors, was prepared as described below. The test article was added into the reaction mixture at a final concentration of 1 μM. […] An aliquot of the reaction mixture (without cofactor cocktail) was equilibrated in a shaking water bath at 37° C. for 3 minutes. The reaction was initiated by the addition of cofactor cocktail, and the mixture was incubated in a shaking water bath at 37° C. Aliquots (100 μL) were withdrawn at 0, 10, 20, 30, and 60 minutes. All samples were immediately combined with 400 uL of icecold 50/50 acetonitrile/H2O containing 0.1% formic acid and internal standard to terminate the reaction. The samples were then mixed and centrifuged to precipitate proteins. Calibration standards were prepared in matched matrix. All samples and standards were assayed by LC-MS/MS using electrospray ionization for both the dosed prodrug I-9 and the expected drug (PEA). Analytical conditions are outlined in Appendix 4-1. The test article concentration at each time point was compared to the test article concentration at time 0 to determine the percent remaining at each time point. Half-lives were calculated using GraphPad software, fitting to single-phase exponential decay equation.
(§2) Reaction mixture, minus cofactors, was prepared as described below. Test article was added into the reaction mixture at a final concentration of 1 μM. […] An aliquot of the reaction mixture (without cofactor cocktail) was equilibrated in a shaking water bath at 37° C. for 3 minutes. The reaction was initiated by the addition of cofactor cocktail, and the mixture was incubated in a shaking water bath at 37° C. Aliquots (100 μL) were withdrawn at 0, 10, 20, 30, and 60 minutes. Test article samples were immediately combined with 300 μL of ice-cold acetonitrile containing 1% formic acid. Control samples were immediately combined with 400 μL of ice-cold 50/50 acetonitrile (ACN)/dH2O containing 0.1% formic acid and internal standard to terminate the reaction. Samples were then mixed and centrifuged to precipitate proteins. Calibration standards were prepared in matched matrix. Samples and standards were assayed by LC-MS/MS using electrospray ionization for both the dosed prodrug and the expected drug (PEA). Analytical conditions are outlined in Appendix 8-1. Test article concentration at each time point was compared to test article concentration at time 0 to determine the percent remaining at each time point. Halflives were calculated using GraphPad software, fitting to a single-phase exponential decay equation.
as §2, with “for 5” for “for 3”, “minutes. Reaction” for “minutes. The reaction”, “and” for “and the”, “both” for “both the”, “Appendix 10-1.” for “Appendix 8-1.”
(§3) Reaction mixture, minus cofactors, was prepared as described below.

in vitro [2] = test: in vitro; remark: listed apart in the source
Description: as §1, §2
as §2, with “for 5” for “for 3”, “minutes. Reaction” for “minutes. The reaction”, “and” for “and the”, “both” for “both the”, “Appendix 10-1.” for “Appendix 8-1.”
as §3

in vitro [3] = details: s9
Description: Reaction mixture, minus cofactors, was prepared as described below. Test article was added into the reaction mixture at a final concentration of 1 μM. […] An aliquot of the reaction mixture (without cofactor cocktail) was equilibrated in a shaking water bath at 37° C. for 3 minutes. The reaction was initiated by the addition of cofactor cocktail (see below), and the mixture was then incubated in a shaking water bath at 37° C. Aliquots (100 μL) were withdrawn 0, 10, 20, 30 and 60 minutes. Test article samples were immediately combined with 300 μL of ice-cold acetonitrile containing 1% formic acid. Control samples were immediately combined with 400 μL of ice-cold 50/50 acetonitrile (ACN)/dH2O containing 0.1% formic acid and internal standard to terminate the reaction. Samples were then mixed and centrifuged to precipitate proteins. Calibration standards were prepared in matched matrix. Samples and standards were assayed by LC-MS/MS using electrospray ionization for both the dosed prodrug and the expected drug (PEA). Analytical conditions are outlined in Appendix 8-1. Test article concentration at each time point was compared to the test article concentration at time 0 to determine the percent remaining at each time point. Half-lives were calculated using GraphPad software, fitting to a single-phase exponential decay equation.
Reaction mixture, minus cofactors, was prepared as described below. Test article was added into the reaction mixture at a final concentration of 1 μM. […] An aliquot of the reaction mixture (without cofactor cocktail) was equilibrated in a shaking water bath at 37° C. for 5 minutes. Reaction was initiated by the addition of cofactor cocktail (see below), and mixture was then incubated in a shaking water bath at 37° C. Aliquots (100 μL) were withdrawn at 0, 10, 20, 30, and 60 minutes. Test article samples were immediately combined with 300 μL of ice-cold acetonitrile containing 1% formic acid. Control samples were immediately combined with 400 μL of ice-cold 50/50 acetonitrile (ACN)/dH2O containing 0.1% formic acid and internal standard to terminate the reaction. Samples were then mixed and centrifuged to precipitate proteins. Calibration standards were prepared in matched matrix. Samples and standards were assayed by LC-MS/MS using electrospray ionization for both dosed prodrug and expected drug (PEA). Analytical conditions are outlined in Appendix 10-1. Test article concentration at each time point was compared to test article concentration at time 0 to determine the percent remaining at each time point. Half-lives were calculated using GraphPad software, fitting to a single-phase exponential decay equation.
The reaction mixture, minus cofactors, was prepared as described below. Test article was added into the reaction mixture at a final concentration of 1 μM. […] An aliquot of the reaction mixture (without cofactor cocktail) was equilibrated in a shaking water bath at 37° C. for 3 minutes. Reaction was initiated by the addition of cofactor cocktail (see below), and the mixture was then incubated in a shaking water bath at 37° C. Aliquots (100 μL) were withdrawn at 0, 10, 20, 30, and 60 minutes. Test article samples were immediately combined with 300 μL of ice-cold acetonitrile containing 1% formic acid. Control samples were immediately combined with 400 μL of ice-cold 50/50 acetonitrile (ACN)/dH2O containing 0.1% formic acid and internal standard to terminate the reaction. Samples were then mixed and centrifuged to precipitate proteins. Calibration standards were prepared in matched matrix. Samples and standards were assayed by LC-MS/MS using electrospray ionization for both dosed prodrug and expected drug (PEA). Analytical conditions are outlined in Appendix 13-1. Test article concentration at each time point was compared to the test article concentration at time 0 to determine the percent remaining at each time point.

[4] = Simulated intestinal fluid stability, SIF containing pancreatin; assay type: in vitro ADME; details: for % Remaining of Initial (n = 1): 1 μM; for Measured Concentration of Drug: test article dosed at 1 μM
Description: (§4) Studies were carried out in simulated intestinal fluid containing pancreatin. Simulated intestinal fluid was prepared by dissolving 6.8 g of monobasic potassium phosphate in 1.0 L of water. Pancreatin was then added to the solution and the pH was adjusted to 6.8. A DMSO stock was first prepared for the test articles. Aliquots of the DMSO solution were dosed into 300 μL of matrix, which had been pre-warmed to 37° C., at a final test article concentration of 1 μM. An individual tube was dosed for each time point. At each time point (0, 15, 30, 60, and 120 minutes), 900 μL of ice-cold acetonitrile containing 1.0% formic acid was added to an individual tube. Starting time for each tube was staggered such that all timepoints would finish at the same time. After the conclusion of the experiment, tubes were mixed and then centrifuged at 3,000 rpm for 10 minutes. Calibration standards were prepared in matched matrix. […] Analytical conditions are outlined in Appendix 11-1.
as §4, with “prepared for test articles.” for “prepared for the test articles.”, “Aliquots of DMSO solution” for “Aliquots of the DMSO solution”, “individual tube. The starting time for” for “individual tube. Starting time for”, “that all time points would finish” for “that all timepoints would finish”, “in Appendix 14-1.” for “in Appendix 11-1.”

[5] = Summary of half life data (Table A), matrix not stated; assay type: in vitro ADME
[6] = male, Sprague-Dawley, rat, in vivo, po
Description: PEA was also dosed intravenously at 1 mg/kg. Blood samples were collected up to 8 hours post-dose, and PEA and PEA-prodrug plasma concentrations were determined with a qualified LC-MS/MS method. Pharmacokinetic analysis was conducted by a non-compartmental model using Phoenix WinNonlin v.6.4 software.
The IV dosing solution was prepared fresh on the day of dosing at 0.5 mg/mL in a vehicle comprised of 10% solutol HS15, 10% n-methylpyrrolidone (NMP), 10% polyethylene glycol 400 (PEG400), and 70% water. For PO dosing, torpac capsules were loaded with an appropriate amount of PEA, PEA-prodrug, or normast powder. […] The prodrug dose in group 5 was the maximum amount of powder that would fit into a single capsule.
The pharmacokinetics of PEA and the PEA-prodrug were evaluated in fasted male Sprague-Dawley rats. Rats were housed one per cage. Each rat was fitted with a jugular vein cannula (JVC) for blood collection. Rats intended for IV dosing were fitted with an additional JVC for dosing. Each study group was dosing in triplicate. Rats were fasted for a minimum of twelve hours prior to dosing. Food was returned at four hours post dosing. Animals had free access to water throughout the study.
Blood samples (˜300 μL) were collected from the rats via a JVC and placed into chilled polypropylene tubes containing sodium heparin as an anticoagulant, and 30 μL of 0.5 M citric acid. Samples were maintained chilled throughout processing. Blood samples were centrifuged at 4° C. and 3,000 g for 5 minutes. Plasma (˜150 μL) was then transferred to a chilled, labeled polypropylene tube containing 15 μL of 10% formic acid, placed on dry ice, and stored in a freezer maintained at −60° C. to −80° C.
Pharmacokinetic parameters were determined with Phoenix WinNonlin (v6.4) software using a non-compartmental model. Maximum plasma concentrations (C0) after IV dosing were estimated by extrapolation of the first two time points back to t=0. […] Area under the time concentration curve (AUC) was calculated using the linear trapezoidal rule with calculation to the last quantifiable data point, and with extrapolation to infinity if applicable. […] Mean residence time, MRT, was calculated by dividing the area under the moment curve (AUMC) by the AUC. Clearance (CL) was calculated from dose/AUC. Steady-state volume of distribution (Vss) was calculated from CL*MRT (mean residence time). Bioavailability was determined by dividing the individual PO dose normalized AUClast values by the average IV AUClast value. Any samples below the limit of quantitation were treated as zero for pharmacokinetic data analysis.
Measured concentrations of PEA in plasma samples were corrected by subtracting the concentration of PEA measured in the pre-dose samples. […] Any corrected values that were negative are reported as not determined (ND).

in vitro [7] = test: in vitro; remark: listed apart in the source
Description: as §2
as §2, with “for 5” for “for 3”, “minutes. Reaction” for “minutes. The reaction”, “and” for “and the”, “both” for “both the”, “Appendix 10-1.” for “Appendix 8-1.”
(§5) Reaction mixture, minus cofactors, was prepared as described below. Test article was added into the reaction mixture at a final concentration of 1 μM. […] An aliquot of the reaction mixture (without cofactor cocktail) was equilibrated in a shaking water bath at 37° C. for 3 minutes. Reaction was initiated by the addition of cofactor cocktail, and the mixture was incubated in a shaking water bath at 37° C. Aliquots (100 μL) were withdrawn at 0, 10, 20, 30, and 60 minutes. Test article samples were immediately combined with 300 μL of ice-cold acetonitrile containing 1% formic acid. Control samples were immediately combined with 400 μL of ice-cold 50/50 acetonitrile (ACN)/dH2O containing 0.1% formic acid and internal standard to terminate the reaction. Samples were then mixed and centrifuged to precipitate proteins. Calibration standards were prepared in matched matrix. Samples and standards were assayed by LC-MS/MS using electrospray ionization for both dosed prodrug and expected drug (PEA). Analytical conditions are outlined in Appendix 13-1. Test article concentration at each time point was compared to test article concentration at time 0 to determine the percent remaining at each time point. Halflives were calculated using GraphPad software, fitting to a single-phase exponential decay equation.

in vitro [8] = test: in vitro; remark: listed apart in the source
Description: as §2
as §5, with “for 5” for “for 3”, “and” for “and the”, “Appendix 10-1.” for “Appendix 13-1.”
as §5

[9] = tested on: patients with distal ulcerative colitis; details: cited from earlier work

- microsomal CLint (in vitro [1]; both, human, s9, Clint, control compound): 943 µL/min/mg
- half-life (in vitro [1]; both, human, s9, Half-life (min)): 13 min
- half-life (in vitro [1]; both, human, s9, Half-life, control compound): 7.3 min
- microsomal CLint (in vitro [2]; male, Sprague-Dawley, rat, s9, Clint, control compound): 20.1 µL/min/mg
- half-life (in vitro [2]; male, Sprague-Dawley, rat, s9, Half-life, control compound): 34 min
SMILES: O=c1ccc2ccc(O)cc2o1 [Compound 7-HC, 7-hydroxycoumarin, reference compound]

- CLint (in vitro [3]; dog): 0.512 ml/min/mg protein
- Half-life (in vitro [3]; dog): 1.4 min
- CLint (in vitro [3]; human): 0.0472 ml/min/mg protein
- Half-life (in vitro [3]; human): 15 min
- CLint (in vitro [3]; mouse): 0.313 ml/min/mg protein
- Half-life (in vitro [3]; mouse): 2.2 min
- CLint (in vitro [3]; rat): 0.362 ml/min/mg protein
- Half-life (in vitro [3]; rat): 1.9 min
SMILES: O=c1ccc2ccc(O)cc2o1 [Compound 7-hydroxycourmann]

- % Remaining of Initial (n = 1) ([4]; 0 min): 100%
- Measured Concentration of Drug ([4]; 0 min): 0.19 µM
- % Remaining of Initial (n = 1) ([4]; 15 min): 25%
- Measured Concentration of Drug ([4]; 15 min): 0.047 µM
- % Remaining of Initial (n = 1) ([4]; 30 min): <2.2%
- Measured Concentration of Drug ([4]; 30 min): 0 µM
- % Remaining of Initial (n = 1) ([4]; 60 min): <2.2%
- Measured Concentration of Drug ([4]; 60 min): 0 µM
- % Remaining of Initial (n = 1) ([4]; 120 min): <2.2%
- Measured Concentration of Drug ([4]; 120 min): 0 µM
- half-life at 1 μM ([4]; simulated intestinal fluid containing pancreatin, pH 6.8, 1 μM): 7.6 min
- half-life [5]: 7.5 min
- Bioavailability [6]: 4.39%
- Dose-normalized AUC∞ (PEA) [6]: 4.81 kg·ng·h/mL/mg
SMILES: CCCCCCCCCCCCCCCC(=O)NCCOC(=O)CCC(=O)OC[C@H](COC(=O)CCC)OC(=O)CCC [Compound I-14]

- CLin (in vitro [1]): 0.0522 ml/min/mg protein
- CLint (in vitro [1]; human, s9): 0.0698 ml/min/mg protein
- CLin (in vitro [7]): 0.0770 ml/min/mg protein
- CLint (in vitro [7]; dog, s9): 0.0799 ml/min/mg protein
- CLin (in vitro [2]): 0.0242 ml/min/mg protein
- CLint (in vitro [2]; rat, s9): 0.0320 ml/min/mg protein
- CLin (in vitro [8]): 0.138 ml/min/mg protein
- CLint (in vitro [8]; mouse, s9): 0.160 ml/min/mg protein
SMILES: O=c1ccc2ccc(O)cc2o1 [Compound 7-hydroxycourmarin]

SMILES: CCCC(=O)[O-].[Na+] [sodium butyrate]
- discharge of blood ceased ([9]; after butyrate irrigation): 9 of 10
- overall crypt proliferation ([9]; after butyrate irrigation): unchanged
- upper crypt-labeling index after butyrate irrigation ([9]; before 0.086±0.019): 0.032±0.003
- histological degree of inflammation after butyrate irrigation ([9]; before 2.4±0.3): 1.5±0.3
- endoscopic score after butyrate irrigation ([9]; before 6.5±0.4): 3.8±0.8
- stool frequency after butyrate irrigation ([9]; sodium butyrate 100 mmol/L enemas 2 weeks, 10 patients, before 4.7±0.5): 2.1±0.4 n/day

- % Remaining of Initial (n = 1) ([4]; 0 min): 100%
- Measured Concentration of Drug ([4]; 0 min): 0.18 µM
- % Remaining of Initial (n = 1) ([4]; 15 min): <2.2%
- Measured Concentration of Drug ([4]; 15 min): 0 µM
- % Remaining of Initial (n = 1) ([4]; 30 min): <2.2%
- Measured Concentration of Drug ([4]; 30 min): 0 µM
- % Remaining of Initial (n = 1) ([4]; 60 min): <2.2%
- Measured Concentration of Drug ([4]; 60 min): 0 µM
- % Remaining of Initial (n = 1) ([4]; 120 min): <2.2%
- Measured Concentration of Drug ([4]; 120 min): 0 µM
- half-life [5]: < 1 min
- Bioavailability [6]: 3.42%
SMILES: CCCCCCCCCCCCCCCC(=O)NCCOC(=O)CCC(=O)OC[C@@H](COC(=O)CCC)OC(=O)CCC [Compound I-15]

Reference: patent publication US11547681B2, “N-acylethanolamide derivatives and uses thereof” (ELIEM THERAPEUTICS, INC., priority 2016, dated 2023)
